Values quoted from earlier work as cited in US20110256218A1, “CONTROLLED RELEASE COMPOSITIONS COMPRISING MECLIZINE OR RELATED PIPERAZINE DERIVATIVES” (EURAND, INC., priority 2010, published 2011).
Where a name gives a salt, the structure may show the parent alone.

Key:
[1] = weakly basic chemical entity
[2] = in humans
[3] = in vivo
[4] = patients taking meclizine

SMILES | pKa [1] | plasma half-life [2] | effects lasting (duration of action) [3] [h] | onset of action [3] | sedation reported (common side effect) [4]
Cc1cccc(CN2CCN(C(c3ccccc3)c3ccc(Cl)cc3)CC2)c1 (stereo not drawn) [Meclizine 2HCl.H2O, 1-(p-chloro-α-phenylbenzyl)-4-(m-methylbenzyl)piperazine dihydrochloride monohydrate] | 6.2 | – | – | – | –
Cc1cccc(CN2CCN(C(c3ccccc3)c3ccc(Cl)cc3)CC2)c1 (centres unmarked) [meclizine] | – | about 6 hours | 8 to 24 | about 1 hour | 20%-30%
